# Like-named read-outs stand apart in the source and are kept apart here.
# Legend:
# [1] = cited from earlier work
# [2] = Human intestinal absorption percentage values of the PreHIA data set (732 compounds, Table S2); conditions: class from HIA value
# [3] = in vivo
# [4] = human, PreHIA data set, value given as fraction
smiles,measurement,setting,value
C#C[C@]1(O)CC[C@H]2[C@@H]3CCC4=CCCC[C@@H]4[C@H]3CC[C@@]21C [Lynestrenol],HIA(Human Intestinal Absorption),[1]; [4],1
same,Class(High: HIA value ≥0.7; Low: HIA value < 0.7),[2],High (High: HIA value ≥0.7)
O=C(c1ccc(F)cc1)C1CCN(CCn2c(=O)[nH]c3ccccc3c2=O)CC1 [Ketanserin],HIA(Human Intestinal Absorption),[1]; [4],1
same,Class(High: HIA value ≥0.7; Low: HIA value < 0.7),[2],High (High: HIA value ≥0.7)
O=C1CC2(CCCC2)CC(=O)N1CCCCN1CCN(c2ncccn2)CC1 [Buspirone],HIA(Human Intestinal Absorption),[1]; [4],1
same,Class(High: HIA value ≥0.7; Low: HIA value < 0.7),[2],High (High: HIA value ≥0.7)
CNS(=O)(=O)CCc1ccc2[nH]cc(C3CCN(C)CC3)c2c1 [Naratriptan],HIA(Human Intestinal Absorption),[1]; [4],0.7
same,Class(High: HIA value ≥0.7; Low: HIA value < 0.7),[2],High (High: HIA value ≥0.7)
CN1[C@@H]2CC[C@H]1C[C@@H](OC(=O)c1c[nH]c3ccccc13)C2 [Tropisetron],HIA(Human Intestinal Absorption),[1]; [4],0.95
same,Class(High: HIA value ≥0.7; Low: HIA value < 0.7),[2],High (High: HIA value ≥0.7)
CN1CCC(=C2c3ccccc3CC(=O)c3sccc32)CC1 [Ketotifen],HIA(Human Intestinal Absorption),[1]; [4],0.9
same,Class(High: HIA value ≥0.7; Low: HIA value < 0.7),[2],High (High: HIA value ≥0.7)
CC[N+]1(C)[C@@H]2CC(OC(=O)[C@H](CO)c3ccccc3)C[C@H]1[C@@H]1O[C@@H]12 (some centres unmarked) [Oxitropium],HIA(Human Intestinal Absorption),[1]; [4],0.16
same,Class(High: HIA value ≥0.7; Low: HIA value < 0.7),[2],Low (Low: HIA value < 0.7)
CN(C(=O)C(Cl)Cl)c1ccc(O)cc1 [Diloxanide],HIA(Human Intestinal Absorption),[1]; [4],0.9
same,Class(High: HIA value ≥0.7; Low: HIA value < 0.7),[2],High (High: HIA value ≥0.7)
O=c1[nH]c2ccccc2n1CCCN1CCN(C(c2ccccc2)c2ccccc2)CC1 [Oxatomide],HIA(Human Intestinal Absorption),[1]; [4],1
same,Class(High: HIA value ≥0.7; Low: HIA value < 0.7),[2],High (High: HIA value ≥0.7)
CC(=O)N1CCN(c2ccc(OCC3COC(Cn4ccnc4)(c4ccc(Cl)cc4Cl)O3)cc2)CC1 (centres unmarked) [Ketoconazole],HIA(Human Intestinal Absorption),[1]; [4],0.75
same,Class(High: HIA value ≥0.7; Low: HIA value < 0.7),[2],High (High: HIA value ≥0.7)
O=c1n(CCCN2CCN(c3cccc(Cl)c3)CC2)nc2ccccn12 [Trazodone],HIA(Human Intestinal Absorption),[1]; [4],1
same,Class(High: HIA value ≥0.7; Low: HIA value < 0.7),[2],High (High: HIA value ≥0.7)
CSc1ccc2ncn(/C=C/C(=O)O)c(=O)c2c1 [Tiacrilast],HIA(Human Intestinal Absorption),[1]; [4],0.99
same,Class(High: HIA value ≥0.7; Low: HIA value < 0.7),[2],High (High: HIA value ≥0.7)
CCc1[nH]c(=O)[nH]c1C(=O)c1ccncc1 [Piroximone],HIA(Human Intestinal Absorption),[1]; [4],0.8
same,Class(High: HIA value ≥0.7; Low: HIA value < 0.7),[2],High (High: HIA value ≥0.7)
Cc1ccc(Cl)c(Nc2ccccc2C(=O)O)c1Cl [Meclofenamic_acid],HIA(Human Intestinal Absorption),[1]; [4],1
same,Class(High: HIA value ≥0.7; Low: HIA value < 0.7),[2],High (High: HIA value ≥0.7)
Cn1nnc2c(C(N)=O)ncn2c1=O [Temozolomide],HIA(Human Intestinal Absorption),[1]; [4],1
same,Class(High: HIA value ≥0.7; Low: HIA value < 0.7),[2],High (High: HIA value ≥0.7)
COc1ccnc(C[S+]([O-])c2nc3ccc(OC(F)F)cc3[nH]2)c1OC (centres unmarked) [Pantoprazole],HIA(Human Intestinal Absorption),[1]; [4],0.77
same,Class(High: HIA value ≥0.7; Low: HIA value < 0.7),[2],High (High: HIA value ≥0.7)
NC(=O)N1C(=O)/C(=C(\O)c2cccs2)c2cc(Cl)ccc21 [Tenidap],HIA(Human Intestinal Absorption),[1]; in vivo,0.89
same,Class(High: HIA value ≥0.7; Low: HIA value < 0.7),[2],High (High: HIA value ≥0.7)
CCOC(=O)C1=C[C@@H](OC(CC)CC)[C@H](NC(C)=O)[C@@H](N)C1 [Oseltamivir],HIA(Human Intestinal Absorption),[1]; [4],0.75
same,Class(High: HIA value ≥0.7; Low: HIA value < 0.7),[2],High (High: HIA value ≥0.7)
Oc1ccc(C(O)C2CCCCN2)cc1O (centres unmarked) [Rimiterol],HIA(Human Intestinal Absorption),[1]; [4],0.48
same,Class(High: HIA value ≥0.7; Low: HIA value < 0.7),[2],Low (Low: HIA value < 0.7)
CN1CCC(=C2c3ccccc3C=Cc3ccccc32)CC1 [Cyproheptadine],HIA(Human Intestinal Absorption),[1]; [4],0.8
same,Class(High: HIA value ≥0.7; Low: HIA value < 0.7),[2],High (High: HIA value ≥0.7)
COc1ccc2cc(CCC(C)=O)ccc2c1 [Nabumetone],HIA(Human Intestinal Absorption),[1]; [4],0.8
same,Class(High: HIA value ≥0.7; Low: HIA value < 0.7),[2],High (High: HIA value ≥0.7)
CN(C)CCC=C1c2ccccc2COc2ccccc21 [Doxepin],HIA(Human Intestinal Absorption),[1]; [4],1
same,Class(High: HIA value ≥0.7; Low: HIA value < 0.7),[2],High (High: HIA value ≥0.7)
CCN(CC)CCOC(=O)C1(C2CCCCC2)CCCCC1 [Dicyclomine],HIA(Human Intestinal Absorption),[1]; [4],1
same,Class(High: HIA value ≥0.7; Low: HIA value < 0.7),[2],High (High: HIA value ≥0.7)
C[N+]1(C)CCC(=C(c2ccccc2)c2ccccc2)CC1 [Diphemanil],HIA(Human Intestinal Absorption),[1]; [4],0.07
same,Class(High: HIA value ≥0.7; Low: HIA value < 0.7),[2],Low (Low: HIA value < 0.7)
COCCOc1cnc(NS(=O)(=O)c2ccccc2)nc1 [Glymidine],HIA(Human Intestinal Absorption),[1]; [4],0.95
same,Class(High: HIA value ≥0.7; Low: HIA value < 0.7),[2],High (High: HIA value ≥0.7)
O=C(O)[C@H]1/C(=C/CO)O[C@@H]2CC(=O)N21 [Clavulanic_acid],HIA(Human Intestinal Absorption),[1]; [4],0.75
same,Class(High: HIA value ≥0.7; Low: HIA value < 0.7),[2],High (High: HIA value ≥0.7)
CN1C[C@H](C(=O)N[C@]2(C)O[C@@]3(O)[C@@H]4CCCN4C(=O)[C@H](Cc4ccccc4)N3C2=O)C[C@@H]2c3cccc4[nH]cc(c34)C[C@H]21 [Dihydroergotamine],HIA(Human Intestinal Absorption),[1]; [4],0.35
same,Class(High: HIA value ≥0.7; Low: HIA value < 0.7),[2],Low (Low: HIA value < 0.7)
CCCN(CCC)CCc1cccc2c1CC(=O)N2 [Ropinirole],HIA(Human Intestinal Absorption),[1]; [4],0.98
same,Class(High: HIA value ≥0.7; Low: HIA value < 0.7),[2],High (High: HIA value ≥0.7)
CN1C(C(=O)Nc2ccccn2)=C(O)c2sc(Cl)cc2S1(=O)=O [Lornoxicam],HIA(Human Intestinal Absorption),[1]; [4],1
same,Class(High: HIA value ≥0.7; Low: HIA value < 0.7),[2],High (High: HIA value ≥0.7)
C[C@@H]1O[C@@H](O[C@H]2C[C@@H](O)[C@]3(CO)[C@H]4[C@H](O)C[C@]5(C)[C@@H](C6=CC(=O)OC6)CC[C@]5(O)[C@@H]4CC[C@]3(O)C2)[C@H](O)[C@H](O)[C@H]1O [Ouabain],Class(High: HIA value ≥0.7; Low: HIA value < 0.7),[2],Low (Low: HIA value < 0.7)
CC1(C)S[C@@H]2[C@H](NC(=O)[C@H](N)c3ccc(O)cc3)C(=O)N2[C@H]1C(=O)O [Amoxicillin],Class(High: HIA value ≥0.7; Low: HIA value < 0.7),[2],High (High: HIA value ≥0.7)
CC(C(=O)O)c1ccc(C2CCCC(=NO)C2)cc1 (centres unmarked) [Ximoprofen],HIA(Human Intestinal Absorption),[1]; [4],0.98
same,Class(High: HIA value ≥0.7; Low: HIA value < 0.7),[2],High (High: HIA value ≥0.7)
O=P(O)(O)C(O)(Cc1cccnc1)P(=O)(O)O [Risedronic_acid],HIA(Human Intestinal Absorption),[1]; [4],0.01
same,Class(High: HIA value ≥0.7; Low: HIA value < 0.7),[2],Low (Low: HIA value < 0.7)
CCCC[N+]1(C)[C@@H]2C[C@@H](OC(=O)[C@H](CO)c3ccccc3)C[C@H]1[C@@H]1O[C@@H]12 (some centres unmarked) [Butylscopolamine],HIA(Human Intestinal Absorption),[1]; [4],0.1
same,Class(High: HIA value ≥0.7; Low: HIA value < 0.7),[2],Low (Low: HIA value < 0.7)
CC1(C)O[C@@H]2C[C@H]3[C@@H]4CCC5=CC(=O)C=C[C@]5(C)[C@@]4(F)[C@@H](O)C[C@]3(C)[C@]2(C(=O)CO)O1 [Triamcinolone_acetonide],HIA(Human Intestinal Absorption),[1]; [4],0.9
same,Class(High: HIA value ≥0.7; Low: HIA value < 0.7),[2],High (High: HIA value ≥0.7)
C[N+]1(CCCCC[N+]2(C)CCCC2)CCCC1 [Pentolinium],HIA(Human Intestinal Absorption),[1]; [4],0.05
same,Class(High: HIA value ≥0.7; Low: HIA value < 0.7),[2],Low (Low: HIA value < 0.7)
N=C(N)NC(=O)Cc1c(Cl)cccc1Cl [Guanfacine],HIA(Human Intestinal Absorption),[1]; [4],1
same,Class(High: HIA value ≥0.7; Low: HIA value < 0.7),[2],High (High: HIA value ≥0.7)
CC(C)=CCC1C(=O)N(c2ccccc2)N(c2ccccc2)C1=O [Feprazone],HIA(Human Intestinal Absorption),[1]; [4],0.9
same,Class(High: HIA value ≥0.7; Low: HIA value < 0.7),[2],High (High: HIA value ≥0.7)
CCCc1cc(C(N)=S)ccn1 [Protionamide],HIA(Human Intestinal Absorption),[1]; [4],0.9
same,Class(High: HIA value ≥0.7; Low: HIA value < 0.7),[2],High (High: HIA value ≥0.7)
COc1cc(C)c([S+](C)[O-])cc1OC (centres unmarked) [Tolmesoxide],HIA(Human Intestinal Absorption),[1]; [4],0.98
same,Class(High: HIA value ≥0.7; Low: HIA value < 0.7),[2],High (High: HIA value ≥0.7)
CCCOC(C(=O)OC1CCN(C)CC1)(c1ccccc1)c1ccccc1 [Propiverine],HIA(Human Intestinal Absorption),[1]; [4],0.84
same,Class(High: HIA value ≥0.7; Low: HIA value < 0.7),[2],High (High: HIA value ≥0.7)
CCOC(=O)C1=C(C)NC(C)=C(C(=O)OCC)C1c1ccccc1/C=C/C(=O)OC(C)(C)C [Lacidipine],HIA(Human Intestinal Absorption),[1]; [4],0.98
same,Class(High: HIA value ≥0.7; Low: HIA value < 0.7),[2],High (High: HIA value ≥0.7)
CC(C)NCC(O)COc1ccc(CCNC(=O)NC(C)C)cc1 (centres unmarked) [Pafenolol],HIA(Human Intestinal Absorption),[1]; [4],0.29
same,Class(High: HIA value ≥0.7; Low: HIA value < 0.7),[2],Low (Low: HIA value < 0.7)
CCOC(=O)N1CCC(=C2c3ccc(Cl)cc3CCc3cccnc32)CC1 [Loratadine],Class(High: HIA value ≥0.7; Low: HIA value < 0.7),[2],High (High: HIA value ≥0.7)
Cc1cc(C)nc(NS(=O)(=O)c2ccc(N)cc2)n1 [Sulfamethazine],Class(High: HIA value ≥0.7; Low: HIA value < 0.7),[3],High (key: High: HIA value ≥0.7; Low: HIA value < 0.7)
same,HIA(Human Intestinal Absorption),[1]; in vivo,0.95
CC(C)NC[C@@H](O)c1ccc(NS(C)(=O)=O)cc1 [Sotalol(S)],Class(High: HIA value ≥0.7; Low: HIA value < 0.7),[3],High (key: High: HIA value ≥0.7; Low: HIA value < 0.7)
same,HIA(Human Intestinal Absorption),[1]; in vivo,0.95
